For twelve compounds, EC50 results are on record in patent US8580832B2, “Substituted phenoxy aminothiazolones as estrogen related receptor-α modulators” (Janssen Pharmaceutica N.V., priority 2007, dated 2013).

For the test, the target named is T1, ERR1 (also known as ERR-α or ERR-1) (Homo sapiens, UniProt P11474).
T1 construct: the ^6His-tagged-ERR1 LBD
T1 sequence (P11474 193-421 limits assumed): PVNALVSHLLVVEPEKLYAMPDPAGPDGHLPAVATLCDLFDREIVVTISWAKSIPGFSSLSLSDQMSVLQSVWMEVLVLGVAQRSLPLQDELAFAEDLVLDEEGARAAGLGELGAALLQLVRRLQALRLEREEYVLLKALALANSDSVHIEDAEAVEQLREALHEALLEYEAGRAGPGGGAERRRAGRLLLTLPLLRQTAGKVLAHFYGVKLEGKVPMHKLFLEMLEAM
The test can be described thus: TR-FRET assay: disruption of co-activator peptide binding to ERR1 LBD. The class given is biochemical. As to conditions: 6His-tagged ERR1 LBD 6 nM, GST-SRC-2 peptide 6 nM, 25° C., 4-18 hours; average of 3 independent experiments. As to the method:
Time-Resolved Fluorescence Resonance Energy Transfer (TR-FRET) experiments were performed to examine the functional response of ERR1 (also known as ERR-α or ERR-1) ligands. The TR-FRET assay described herein relied on the conformation of ERR1 for binding to a co-activator peptide: when a test compound binds to ERR1 and alters its conformation, it can disrupt the binding of the co-activator peptide. The components of this homogeneous secondary assay included: the ^6His-tagged-ERR1 LBD, a GST-labeled-hSRC2 co-activator polypeptide and a fluorescent donor/acceptor pair from CIS bio international htrf/bioassays (Bedford, Mass.) using both an α-GST Europium Cryptate (Eu) label and an α^6His-XL665 (allophycocyanin) fluorophore.
For TR-FRET measurements, the reaction was buffered in 25 mM Tris pH 8, 2.5 mM Hepes, 20 mM KCl, 1 mM DTT, and 0.05 mg/mL BSA (-lipids). […] Reactions were allowed to reach equilibrium at 25° C. for 4-18 hours before collecting data on the Analyst from LJL Biosystems (Molecular Devices Sunnyvale, Calif.). […] Dose response curves were fitted using a hyperbolic equation and the data reported is the average of 3 independent experiments.
Background: Time-resolved FRET reads energy transfer from a long-lived donor to a nearby acceptor.

The EC50 is the concentration at which the effect is half-maximal. A low value points to a more potent agent. On to `COc1cc(/C=C2\SC(N)=NC2=O)ccc1Oc1ccc(C#N)cc1Cl` [Compound 2, 4-[4-(2-Amino-4-oxo-4H-thiazol-5-ylidenemethyl)-2-methoxy-phenoxy]-3-chloro-benzonitrile], for which the concentration giving a half-maximal response (EC50) was 0.21 µM.

In the case of `N#Cc1ccc(Oc2ccc(/C=C3\SC(NCc4nnn[nH]4)=NC3=O)cc2F)c(C(F)(F)F)c1` [Example 108, 4-(2-Fluoro-4-{4-oxo-2-[(1H-tetrazol-5-ylmethyl)-amino]-4H-thiazol-5-ylidenemethyl}-phenoxy)-3-trifluoromethyl-benzonitrile], the midpoint of the response, the EC50, lay at 0.01 µM.

With `N#Cc1ccc(Oc2ccc(/C=C3\SC(N4CCNC(=O)C4)=NC3=O)cc2F)c(C(F)(F)F)c1` [Example 47, 4-{2-Fluoro-4-[4-oxo-2-(3-oxo-piperazin-1-yl)-4H-thiazol-5-ylidenemethyl]-phenoxy}-3-trifluoromethyl-benzonitrile], the EC50 was 0.019 µM.

Compound `COc1cc(/C=C2\SC(N3CCNC(=O)C3)=NC2=O)ccc1Oc1ccc(C(F)(F)F)cc1C(F)(F)F` [Example 59, 4-{5-[4-(2,4-Bis-trifluoromethyl-phenoxy)-3-methoxy-benzylidene]-4-oxo-4,5-dihydro-thiazol-2-yl}-piperazin-2-one] gave an EC50 of 0.14 µM.

`CN(C)CCCNC1=NC(=O)/C(=C/c2ccc(Oc3ccc(C#N)cc3C(F)(F)F)c(F)c2)S1` [Example 48, 4-{4-[2-(3-Dimethylamino-propylamino)-4-oxo-4H-thiazol-5-ylidenemethyl]-2-fluoro-phenoxy}-3-trifluoromethyl-benzonitrile] registered a half-maximal effective concentration (EC50) of 0.009 µM.

The compound `COc1cc(/C=C2\SC(N3CCN(C)CC3)=NC2=O)ccc1Oc1ccc(C#N)cc1C(F)(F)F` [Compound 7, 4-{2-Methoxy-4-[2-(4-methyl-piperazin-1-yl)-4-oxo-4H-thiazol-5-ylidenemethyl]-phenoxy}-3-trifluoromethyl-benzonitrile] showed an EC50 of 0.011 µM.

On to `COc1cc(/C=C2\SC(NC3CCOCC3)=NC2=O)ccc1Oc1ccc(C#N)cc1C(F)(F)F` [Compound 15, 4-{2-Methoxy-4-[4-oxo-2-(tetrahydro-pyran-4-ylamino)-4H-thiazol-5-ylidenemethyl]-phenoxy}-3-trifluoromethyl-benzonitrile], for which the EC50 is 0.018 µM.

Compound `COc1cc(/C=C2\SC(NCCCN3CCOCC3)=NC2=O)ccc1Oc1ccc(C#N)cc1C(F)(F)F` [Example 27, 4-{2-Methoxy-4-[2-(3-morpholin-4-yl-propylamino)-4-oxo-4H-thiazol-5-ylidenemethyl]-phenoxy}-3-trifluoromethyl-benzonitrile] displayed an EC50 of 0.011 µM.

As to `COC(=O)CC1CCN(C2=NC(=O)/C(=C/c3ccc(Oc4ccc(C#N)cc4C(F)(F)F)c(OC)c3)S2)CC1` [Example 83, (1-{5-[4-(4-Cyano-2-trifluoromethyl-phenoxy)-3-methoxy-benzylidene]-4-oxo-4,5-dihydro-thiazol-2-yl}-piperidin-4-yl)-acetic acid methyl ester], the EC50 was 0.026 µM.

On to `N#Cc1ccc(Oc2ccc(/C=C3\SC(NCCCN4CCNC(=O)C4)=NC3=O)cc2F)c(C(F)(F)F)c1` [Example 100, 4-(2-Fluoro-4-{4-oxo-2-[3-(3-oxo-piperazin-1-yl)-propylamino]-4H-thiazol-5-ylidenemethyl}-phenoxy)-3-trifluoromethyl-benzonitrile], for which a half-maximal effect (EC50) was put at 0.031 µM.

`COc1cc(/C=C2\SC(N3CC(C(=O)O)C3)=NC2=O)ccc1Oc1ccc(C#N)cc1C(F)(F)F` [Example 106, 1-{5-[4-(4-Cyano-2-trifluoromethyl-phenoxy)-3-methoxy-benzylidene]-4-oxo-4,5-dihydro-thiazol-2-yl}-azetidine-3-carboxylic acid] showed a 50% effective concentration (EC50) of 0.003 µM.

Consider `COc1cc(/C=C2\SC(N(C)OC)=NC2=O)ccc1Oc1ccc(C#N)cc1C(F)(F)F` [Example 75, 4-{2-Methoxy-4-[2-(methoxy-methyl-amino)-4-oxo-4H-thiazol-5-ylidenemethyl]-phenoxy}-3-trifluoromethyl-benzonitrile], for which the EC50 was 0.032 µM.
